{"source": "patent US20240158350A1", "about": "“ESTER ANALOGS OF PSILOCIN, PROCESSES FOR THE PREPARATION THEREOF, AND METHODS OF USE” (Invyxis, Inc., priority 2022, published 2024)", "key": {"[1]": {"experiment": "Stability in fasted state simulated gastric fluid (FaSSGF)", "type": "in vitro ADME", "conditions": "37° C., 60 min vs T0", "procedure": "Fasted state simulated gastric fluid (FaSSGF). FaSSGF was prepared according to the manufacturer instructions (Biorelevant, UK). Test compounds (2 μL of 200 μM solution) were added to a 96-well plate containing 198 μL FaSSGF per well. The mixture was incubation in a thermomixer at 37° C. for 60 min. Sample aliquots were removed (40 μL, from T0 and 60 min.) and quenched with acetonitrile containing 0.5 μM glyburide (IS), and the supernatant collected by centrifugation (2500 rpm, 15 min.). LC-MS was performed using an Agilent MSD (electrospray in positive ionization) equipped with a Kinetic C18 reverse-column. The percent of test compound remaining was calculated using the ratio of the peak area of intact test compound at 60 min. over T0. The percent of psilocin release was calculated by comparing the peak area of psilocin at 60 min, (for test compound) vs. peak area at T0 (2 μM psilocin)."}, "[2]": {"target": "human serotonin 5HT2A receptor (Homo sapiens, UniProt P28223)", "sequence (P28223 whole entry)": "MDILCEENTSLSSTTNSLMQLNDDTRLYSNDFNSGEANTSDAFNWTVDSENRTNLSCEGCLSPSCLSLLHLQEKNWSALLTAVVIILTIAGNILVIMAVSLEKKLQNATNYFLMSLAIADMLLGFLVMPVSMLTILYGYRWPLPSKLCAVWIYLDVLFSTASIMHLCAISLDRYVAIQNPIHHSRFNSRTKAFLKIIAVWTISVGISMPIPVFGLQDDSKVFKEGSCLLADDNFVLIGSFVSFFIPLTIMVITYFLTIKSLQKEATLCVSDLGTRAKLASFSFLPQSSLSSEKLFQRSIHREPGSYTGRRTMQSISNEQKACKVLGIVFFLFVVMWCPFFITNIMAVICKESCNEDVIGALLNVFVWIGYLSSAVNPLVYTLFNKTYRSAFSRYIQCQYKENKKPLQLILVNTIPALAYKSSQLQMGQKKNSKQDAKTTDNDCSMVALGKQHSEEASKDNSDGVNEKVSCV", "experiment": "5HT2A receptor radioligand displacement assay", "design": "key to the marks not given beside the values", "conditions": "displacement of [3H]-ketanserin or [3H]-LSD, HEK293 membranes"}, "[3]": {"experiment": "IP-One incubation stability (cell-treated stimulation medium, LC-MS)", "type": "in vitro ADME", "conditions": "2 μM, 60 min vs T0, 37° C., medium on CHO-K1 cells expressing 5-HT2A", "procedure": "IP-One incubation. CHO-K1 cells expressing recombinant Serotonin receptor 5-HT2A (Perkin Elmer, Waltham, MA), were seeded in 96-well plates (˜80,000 cells/well) and treated with 28 μL (per well) of stimulation medium (IP-One HTRF® kit) containing test compounds (2 μM) for 1 hr in a CO2 incubator (5%) at 37° C. The cell-treated medium from 3 wells were pooled together to provide 40 μL for LC-MS analysis. Aliquots for each compound were collected at time zero (T0, 100% intact test compound) and 60-min. The incubated medium (40 μL) was quenched with 120 μL of acetonitrile containing 0.5 μM glyburide (IS), and the supernatant was collected by centrifugation (2500 rpm, 15 min.). LC-MS was performed using an Agilent MSD (electrospray in positive ionization) equipped with a Kinetic C18 reverse-column. The percent of test compound remaining is calculated using the ratio of the peak areas of intact test compound at 60 min. over T0. The percent of psilocin release is calculated by comparing the peak area of psilocin at 60 min. (for test compound) vs. peak area at T0 (2 μM psilocin). Results are summarized in Table 1, (rel to % parent detected; and % psilocin detected at 1 hr)."}, "[4]": {"experiment": "Single-dose oral pharmacokinetics in C57BL6 mice (plasma and brain)", "type": "in vivo", "conditions": "for Cmax: read-out: Parent PK Cmax", "procedure": "The single-dose pharmacokinetics of test compounds were analyzed relative to control (psilocin) in C57BL6 mice via oral (PO) administration. Test compound was dissolved in DMSO and transferred to a 15-mL tube, followed by addition of Tween-80, PEG-400, and water to final volume. The resulting formulation (0.3 mg/mL compound, in DMSO (1%), Tween-80 (5%), and PEG-400 (25%) in water (69%)) was vortexed for 2 min. and mixed by inversion.\nMale C57BL6 mice (3× per compound, (at a weight ˜20g)) received a single dose (oral) of test compound at 3.0 mg/kg. Blood samples were collected pre-dose and at 0.083, 0.25, 0.5, 1, 2, 4, 8, 24-hour post-dose to yield approximately 20 μL of pooled plasma (3× mice) per time point. Brain tissues were collected at 2- and 8-hr post-dose. Brain was flushed with saline solution using a perfusion needle through the ascending aorta of the ventricle to remove any remaining blood prior to collection. Plasma and brain homogenate samples were stored at −80° C. prior to extraction for LC-MS/MS analysis.\nSamples were analyzed by LC-MS/MS to quantify the amounts of test compound and control (psilocin). The calculation of the pharmacokinetic (PK) parameters (AUCt, AUCinf, Cmax, Tmax, T1/2, and Kel) can be performed using a non-compartmental analysis (trapezoidal method)."}, "[5]": {"conditions": "male, C57BL6, mouse, parent compound in brain, 2 h post-dose, 3.0 mg/kg PO, read-out: Parent PK [brain] 2 h"}, "[6]": {"conditions": "male, C57BL6, mouse, parent compound in plasma, 3.0 mg/kg PO"}}, "note": "Like-named read-outs stand apart in the source and are kept apart here."}
{"smiles": "CN(C)CCc1c[nH]c2cccc(O)c12", "note": "[Psilocin, 4-hydroxy-N,N-dimethyltryptamine]", "values": [{"measurement": "% parent compound", "setting": "[1]", "value": 72.2, "unit": "%"}, {"measurement": "Activity relative to psilocin", "setting": "[2]", "value": "++"}, {"measurement": "% parent compound", "setting": "[3]", "value": 87.4, "unit": "%"}, {"measurement": "psilocin in the brain at 8-h post-dose", "setting": "[4]; 8-h post-dose", "value": "No psilocin in the brain was detected"}, {"measurement": "psilocin plasma concentration (estimate)", "setting": "[4]; estimate based on other pharmacokinetic data", "value": "~5", "unit": "ng/mL"}, {"measurement": "concentration at 2 h", "setting": "[4]; male, C57BL6, mouse, brain, oral, 3 mg/kg, 2-h post-dose, range over animals, read-out: Psilocin concentration in the brain", "value": "40 to 78", "unit": "ng/g"}, {"measurement": "Kp at 2 h", "setting": "[4]; male, C57BL6, mouse, brain, oral, 3 mg/kg, 2-h post-dose, with estimated plasma concentration of 5 ng/mL, read-out: mean brain/plasma (B/P) ratio", "value": "11.2 ± 4.3"}, {"measurement": "concentration at 2 h", "setting": "[4]; [5]", "value": 54, "unit": "ng/mL"}, {"measurement": "Cmax", "setting": "[4]; [6]", "value": "~5", "unit": "ng/mL"}]}
{"smiles": "CN(C)CCc1c[nH]c2cccc(OC(=O)C(C)(C)C(=O)Oc3cccc4[nH]cc(CCN(C)C)c34)c12", "note": "[Test Compound A, bis(3-(2-(dimethylamino)ethyl)-1H-indol-4-yl) 2,2-dimethylmalonate]", "values": [{"measurement": "PK profile (absorption, elimination)", "setting": "[4]; 3.0 mg/kg PO, in words", "value": "quick absorption of the compound, but with a long elimination phase"}, {"measurement": "brain penetration of the parent compound", "setting": "[4]; 3.0 mg/kg PO, in words", "value": "delayed brain penetration of the parent compound"}, {"measurement": "concentration at 2 h", "setting": "[4]; [5]", "value": 0.5, "unit": "ng/mL"}, {"measurement": "AUC", "setting": "[4]; male, C57BL6, mouse, parent compound in plasma, 3.0 mg/kg PO, read-out: Parent PK AUC", "value": 39, "unit": "ng·h/mL"}, {"measurement": "Cmax", "setting": "[4]; [6]", "value": 4.2, "unit": "ng/mL"}, {"measurement": "Parent [brain] at 8 h", "setting": "[4]; parent compound in brain, 8 h post-dose (footnote)", "value": "**[brain] at 8 h is 6 ng/mL."}]}
{"smiles": "CN(C)CCc1c[nH]c2cccc(OC(=O)CCCC(=O)Oc3cccc4[nH]cc(CCN(C)C)c34)c12", "note": "[Test Compound B, bis(3-(2-(dimethylamino)ethyl)-1H-indol-4-yl) glutarate]", "values": [{"measurement": "PK profile (absorption, elimination)", "setting": "[4]; 3.0 mg/kg PO, in words", "value": "good PK profile as a psilocin prodrug"}, {"measurement": "parent compound detected in plasma or brain samples", "setting": "[4]; 3.0 mg/kg PO, in words", "value": "no parent compound was detected in any of the plasma or brain samples"}, {"measurement": "concentration at 2 h", "setting": "[4]; [5]", "value": 0, "unit": "ng/mL"}, {"measurement": "psilocin detected after administration of test compound", "setting": "[4]; plasma and brain, in words", "value": "psilocin was detected in quantifiable amounts"}]}
{"smiles": "CN(C)CCc1c[nH]c2cccc(OC(=O)CCC(=O)Oc3cccc4[nH]cc(CCN(C)C)c34)c12", "note": "[drawing 41]", "values": [{"measurement": "% parent compound", "setting": "[3]", "value": 61.7, "unit": "%"}]}
{"smiles": "CN(C)CCc1c[nH]c2cccc(OC(=O)c3ccc(Br)cc3)c12", "note": "[drawing 42]", "values": [{"measurement": "% parent compound", "setting": "[3]", "value": 9.1, "unit": "%"}]}
{"smiles": "CN(C)CCc1c[nH]c2cccc(OC(=O)C(C)(C)C(=O)Oc3cccc4[nH]cc(CCN(C)C)c34)c12", "note": "[drawing 43]", "values": [{"measurement": "% parent compound", "setting": "[3]", "value": 86.8, "unit": "%"}]}
{"smiles": "CN(C)CCc1c[nH]c2cccc(OC(=O)CCCC(=O)Oc3cccc4[nH]cc(CCN(C)C)c34)c12", "note": "[drawing 44]", "values": [{"measurement": "% parent compound", "setting": "[3]", "value": 71.5, "unit": "%"}]}
{"smiles": "CN(C)CCc1c[nH]c2cccc(OC(=O)c3cccc(C(=O)Oc4cccc5[nH]cc(CCN(C)C)c45)c3)c12", "note": "[drawing 45]", "values": [{"measurement": "% parent compound", "setting": "[3]", "value": 52.1, "unit": "%"}]}
{"smiles": "CN(C)CCc1c[nH]c2cccc(OC(=O)[C@H]3C[C@@H]3C(=O)Oc3cccc4[nH]cc(CCN(C)C)c34)c12", "note": "[drawing 46]", "values": [{"measurement": "% parent compound", "setting": "[3]", "value": 76.1, "unit": "%"}]}
{"smiles": "CN(C)CCc1c[nH]c2cccc(OC(=O)c3ccccc3F)c12", "note": "[drawing 47]", "values": [{"measurement": "% parent compound", "setting": "[3]", "value": 11.4, "unit": "%"}]}
{"smiles": "CN(C)CCc1c[nH]c2cccc(OC(=O)CCC(=O)Oc3cccc4[nH]cc(CCN(C)C)c34)c12", "note": "[drawing 49]", "values": [{"measurement": "% parent compound", "setting": "[1]", "value": 97.1, "unit": "%"}]}
{"smiles": "CN(C)CCc1c[nH]c2cccc(OC(=O)c3ccc(Br)cc3)c12", "note": "[drawing 50]", "values": [{"measurement": "% parent compound", "setting": "[1]", "value": 93.8, "unit": "%"}]}
{"smiles": "CN(C)CCc1c[nH]c2cccc(OC(=O)C(C)(C)C(=O)Oc3cccc4[nH]cc(CCN(C)C)c34)c12", "note": "[drawing 51]", "values": [{"measurement": "% parent compound", "setting": "[1]", "value": 94.7, "unit": "%"}]}
{"smiles": "CN(C)CCc1c[nH]c2cccc(OC(=O)CCCC(=O)Oc3cccc4[nH]cc(CCN(C)C)c34)c12", "note": "[drawing 52]", "values": [{"measurement": "% parent compound", "setting": "[1]", "value": 94.5, "unit": "%"}]}
{"smiles": "CN(C)CCc1c[nH]c2cccc(OC(=O)c3cccc(C(=O)Oc4cccc5[nH]cc(CCN(C)C)c45)c3)c12", "note": "[drawing 53]", "values": [{"measurement": "% parent compound", "setting": "[1]", "value": 93.5, "unit": "%"}]}
{"smiles": "CN(C)CCc1c[nH]c2cccc(OC(=O)[C@H]3C[C@@H]3C(=O)Oc3cccc4[nH]cc(CCN(C)C)c34)c12", "note": "[drawing 54]", "values": [{"measurement": "% parent compound", "setting": "[1]", "value": 95.5, "unit": "%"}]}
{"smiles": "CN(C)CCc1c[nH]c2cccc(OC(=O)c3ccccc3F)c12", "note": "[drawing 55]", "values": [{"measurement": "% parent compound", "setting": "[1]", "value": 97.5, "unit": "%"}]}
{"smiles": "CN(C)CCc1c[nH]c2cccc(OC(=O)CCC(=O)Oc3cccc4[nH]cc(CCN(C)C)c34)c12", "note": "[drawing 57]", "values": [{"measurement": "Activity relative to psilocin", "setting": "[2]", "value": "+++"}]}
{"smiles": "CN(C)CCc1c[nH]c2cccc(OC(=O)c3ccc(Br)cc3)c12", "note": "[drawing 58]", "values": [{"measurement": "Activity relative to psilocin", "setting": "[2]", "value": "++"}]}
{"smiles": "CN(C)CCc1c[nH]c2cccc(OC(=O)C(C)(C)C(=O)Oc3cccc4[nH]cc(CCN(C)C)c34)c12", "note": "[drawing 59]", "values": [{"measurement": "Activity relative to psilocin", "setting": "[2]", "value": "+++"}]}
{"smiles": "CN(C)CCc1c[nH]c2cccc(OC(=O)CCCC(=O)Oc3cccc4[nH]cc(CCN(C)C)c34)c12", "note": "[drawing 60]", "values": [{"measurement": "Activity relative to psilocin", "setting": "[2]", "value": "+++"}]}
{"smiles": "CN(C)CCc1c[nH]c2cccc(OC(=O)c3cccc(C(=O)Oc4cccc5[nH]cc(CCN(C)C)c45)c3)c12", "note": "[drawing 61]", "values": [{"measurement": "Activity relative to psilocin", "setting": "[2]", "value": "+++"}]}
{"smiles": "CN(C)CCc1c[nH]c2cccc(OC(=O)[C@H]3C[C@@H]3C(=O)Oc3cccc4[nH]cc(CCN(C)C)c34)c12", "note": "[drawing 62]", "values": [{"measurement": "Activity relative to psilocin", "setting": "[2]", "value": "+++"}]}
{"smiles": "CN(C)CCc1c[nH]c2cccc(OC(=O)c3ccccc3F)c12", "note": "[drawing 63]", "values": [{"measurement": "Activity relative to psilocin", "setting": "[2]", "value": "++"}]}
